For assay [1], the system named is EpiSC-derived OPCs. Briefly: In vitro phenotypic screening of OPCs (MBP high-content imaging). Conditions: Mus musculus, 72 h; percentage of MBP-positive oligodendrocytes, 3 days, 0.5 nM to 1000 nM; read-out: OPC EC50. In kind it is cell-based. The method in brief: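 Mouse EpiSC-derived OPCs seeded at 150,000/cm^2 without growth factors, treated 3 days at 37° C with 8-point doses from 1000 nM to 0.5 nM. Fixed, MBP immunostained with DAPI; high-content imaging gives percentage MBP-positive oligodendrocytes.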

Assay [2] deals with zymostenol accumulation in EpiSC-derived OPCs (EBP). Briefly: GC/MS-based sterol profiling (zymostenol accumulation). In kind it is cell-based. Conditions: Mus musculus, 24 hours, 8 doses from 0.15 nM to 333 nM, read-out: Zymostenol GCMS EC50. The method in brief: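 Mouse epiblast stem cell-derived OPCs plated at 100,000 cells/well in growth-factor-free N2B27 and treated 24 h. Sterols extracted by modified Folch wash, silylated with BSTFA, and quantified by electron-impact GC/MS against cholesterol-d7 (zymostenol ion 458). Zymostenol normalised to 24 h 100 nM positive-control reference.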

The values below come from patent US20240391930A1, “SPIROCYCLIC BICYCLIC MODULATORS OF CHOLESTEROL BIOSYNTHESIS AND THEIR USE FOR PROMOTING REMYELINATION” (GENENTECH, INC., priority 2021, published 2024).

Consider `CC(C)n1nc(-c2ccnc(C(F)(F)F)n2)cc1[C@H]1[C@@H]2C[C@@H](N3CCC4(CC3)CS(=O)(=O)C4)C[C@@H]21` (single isomer, unassigned) [Compound 49], for which the results for the EC50 in assay [1] and in assay [2] were 4.6 nM and 2.7 nM, respectively.

Regarding `CC(C)n1nc(-c2cccc(C(F)(F)F)n2)cc1[C@H]1[C@@H]2C[C@@H](N3CCC4(CC3)CS(=O)(=O)C4)C[C@@H]21` (single isomer, unassigned) [Compound 47], the concentration for a half-maximal effect (EC50) worked out at 1.7 nM in assay [1] and 1.9 nM in assay [2].

As for `CC(C)n1nc(-c2ccc(C(F)(F)F)cc2)cc1[C@H]1[C@@H]2C[C@H](N3CCC4(C3)CS(=O)(=O)C4)C[C@@H]21` [Compound 5, 6-((1R,3r,5S,6r)-6-(1-Isopropyl-3-(4-(trifluoromethyl)phenyl)-1H-pyrazol-5-yl)bicyclo[3.1.0]hexan-3-yl)-2-thia-6-azaspiro[3.4]octane 2,2-dioxide], the results for the EC50 in assay [1] and in assay [2] were 8 nM and 3.6 nM, respectively.

Turning to `CC(C)n1nc(-c2ccnc(C(F)(F)F)c2)cc1[C@H]1[C@@H]2C[C@@H](N3CCC4(C3)CS(=O)(=O)C4)C[C@@H]21` (single isomer, unassigned) [Compound 18], the EC50 in assay [1] came out at 15 nM; in assay [2] it was 2.3 nM.

Turning to `CC(C)n1nc(-c2cccc(C(F)(F)F)c2)cc1[C@H]1[C@@H]2C[C@@H](N3CCC4(C3)CS(=O)(=O)C4)C[C@@H]21` (single isomer, unassigned) [Compound 2], the half-maximal effective concentration (EC50) in assay [1] amounted to 0.9 nM; in assay [2], 1.81 nM.

Consider `CC(C)n1nc(-c2cncc(C(F)(F)F)c2)cc1[C@H]1[C@@H]2C[C@H](N3CCC4(C3)CS(=O)(=O)C4)C[C@@H]21` (single isomer, unassigned) [Compound 4], for which the EC50 came to 14 nM in assay [1] and 3 nM in assay [2].

For the compound `CC(C)n1nc(-c2cncc(C(F)(F)F)c2)nc1[C@H]1[C@@H]2C[C@H](N3CCC4(C3)CS(=O)(=O)C4)C[C@@H]21` (single isomer, unassigned) [Compound 17], the EC50 in assay [1] came to 420 nM; in assay [2], 42 nM.

For the compound `CC(C)n1nc(-c2ccnc(C(F)(F)F)n2)cc1[C@H]1[C@@H]2C[C@H](N3CCC4(C3)CS(=O)(=O)C4)C[C@@H]21` [Compound 15, 6-((1R,3r,5S,6r)-6-(1-Isopropyl-3-(2-(trifluoromethyl)pyrimidin-4-yl)-1H-pyrazol-5-yl)bicyclo[3.1.0]hexan-3-yl)-2-thia-6-azaspiro[3.4]octane 2,2-dioxide], the 50% effective concentration (EC50) in assay [1] is 6.6 nM; in assay [2] it was 3.2 nM.

For the compound `CC(C)n1nc(-c2cncc(C(F)(F)F)c2)cc1[C@H]1[C@@H]2C[C@H](N3CC[C@@]4(CCS(=O)(=O)C4)C3)C[C@@H]21` (single isomer, unassigned) [Compound 9*], the EC50 turned out to be 3.8 nM in assay [1] and 2.7 nM in assay [2].

Consider `CC(C)n1nc(C(F)(F)F)cc1[C@H]1[C@@H]2C[C@H](N3CCC4(C3)CS(=O)(=O)C4)C[C@@H]21` (single isomer, unassigned) [Compound 23], for which the EC50 in assay [1] turned out to be 53 nM; in assay [2], 12 nM.

For the compound `CCn1nc(-c2cncc(C(F)(F)F)c2)cc1[C@H]1[C@@H]2C[C@@H](N3CCC4(C3)CS(=O)(=O)C4)C[C@@H]21` (single isomer, unassigned) [Compound 24], the 50% effective concentration (EC50) in assay [1] was determined as 9.3 nM; in assay [2], 1.8 nM.

Regarding `CC(C)n1nc(-c2cccc(C(F)(F)F)n2)cc1[C@H]1[C@@H]2C[C@H](N3CCC4(CC3)CS(=O)(=O)C4)C[C@@H]21` (single isomer, unassigned) [Compound 48], the results for the 50% effective concentration (EC50) in assay [1] and in assay [2] were 15 nM and 10 nM, respectively.

For `CC(C)n1nc(-c2cncc(C(F)(F)F)c2)nc1[C@H]1[C@@H]2C[C@@H](N3CCC4(C3)CS(=O)(=O)C4)C[C@@H]21` (single isomer, unassigned) [Compound 16], the EC50 in assay [1] was 24 nM; in assay [2] it was 6.7 nM.

For the compound `CC(C)n1nc(-c2cncc(C(F)(F)F)c2)cc1[C@H]1[C@@H]2C[C@@H](N3CC4(C3)CS(=O)(=O)C4)C[C@@H]21` (single isomer, unassigned) [Compound 98*], the values for the concentration giving a half-maximal response (EC50) in assay [1] and in assay [2] were 300 nM and 55 nM, respectively.

In the case of `CC(C)n1nc(-c2cncc(C(F)(F)F)c2)cc1[C@H]1[C@@H]2C[C@@H](N3CCC4(CC3)CS(=O)(=O)C4)C[C@@H]21` (single isomer, unassigned) [Compound 38], the EC50 in assay [1] was found to be 4.9 nM; in assay [2], 2.9 nM.

Take `CC(C)n1nc(-c2cc(C(F)(F)F)ccn2)cc1[C@H]1[C@@H]2C[C@H](N3CCC4(C3)CS(=O)(=O)C4)C[C@@H]21` (single isomer, unassigned) [Compound 21]: the EC50 in assay [1] was determined as 6.6 nM; in assay [2] it was 3.1 nM.

Regarding `CC(C)n1nc(-c2ccnc(C(F)(F)F)c2)cc1[C@H]1[C@@H]2C[C@H](N3CCC4(C3)CS(=O)(=O)C4)C[C@@H]21` (single isomer, unassigned) [Compound 19], the EC50 turned out to be 13 nM in assay [1] and 2.5 nM in assay [2].

As to `CCn1nc(-c2cncc(C(F)(F)F)c2)cc1[C@H]1[C@@H]2C[C@H](N3CCC4(C3)CS(=O)(=O)C4)C[C@@H]21` (single isomer, unassigned) [Compound 25], the results for the EC50 in assay [1] and in assay [2] were 4.2 nM and 0.36 nM, respectively.

Turning to `CC(C)n1nc(-c2ccnc(C(F)(F)F)n2)cc1[C@H]1[C@@H]2C[C@@H](N3CCC4(C3)CS(=O)(=O)C4)C[C@@H]21` [Compound 28, 6-((1R,3s,5S,6r)-6-(1-isopropyl-3-(2-(trifluoromethyl)pyrimidin-4-yl)-1H-pyrazol-5-yl)bicyclo[3.1.0]hexan-3-yl)-2-thia-6-azaspiro[3.4]octane 2,2-dioxide], the values for the 50% effective concentration (EC50) in assay [1] and in assay [2] were 39 nM and 6 nM, respectively.

Turning to `CC(C)n1nc(-c2cccc(C(F)(F)F)n2)cc1[C@H]1[C@@H]2C[C@H](N3CCC4(C3)CS(=O)(=O)C4)C[C@@H]21` (single isomer, unassigned) [Compound 12], the half-maximal effective concentration (EC50) was 9.7 nM in assay [1] and 3.7 nM in assay [2].

For the compound `CC(C)n1nc(-c2cncc(C(F)(F)F)c2)cc1[C@H]1[C@@H]2C[C@H](N3CC4(C3)CS(=O)(=O)C4)C[C@@H]21` (single isomer, unassigned) [Compound 99*], the half-maximal effective concentration (EC50) in assay [1] was 300 nM; in assay [2], 86 nM.

With `CC(C)n1nc(-c2cncc(C(F)(F)F)c2)cc1[C@H]1[C@@H]2C[C@H](N3CCC4(CC3)CS(=O)(=O)C4)C[C@@H]21` (single isomer, unassigned) [Compound 40], the 50% effective concentration (EC50) stood at 15 nM in assay [1] and 5.9 nM in assay [2].

As for `CC(C)n1nc(-c2cnc(C(F)(F)F)nc2)cc1[C@H]1[C@@H]2C[C@H](N3CCC4(C3)CS(=O)(=O)C4)C[C@@H]21` [Compound 6, 6-((1R,3r,5S,6r)-6-(1-Isopropyl-3-(2-(trifluoromethyl)pyrimidin-5-yl)-1H-pyrazol-5-yl)bicyclo[3.1.0]hexan-3-yl)-2-thia-6-azaspiro[3.4]octane 2,2-dioxide], the values for the EC50 in assay [1] and in assay [2] were 200 nM and 29 nM, respectively.

On to `CC(C)n1nc(-c2ccnc(C(F)(F)F)n2)cc1[C@H]1[C@@H]2C[C@H](N3CCC4(CC3)CS(=O)(=O)C4)C[C@@H]21` (single isomer, unassigned) [Compound 50], for which the 50% effective concentration (EC50) in assay [1] came to 69 nM; in assay [2] it was 20 nM.

Regarding `CC(C)n1nc(C(F)(F)F)cc1[C@H]1[C@@H]2C[C@@H](N3CCC4(C3)CS(=O)(=O)C4)C[C@@H]21` (single isomer, unassigned) [Compound 22], the figures for the EC50 in assay [1] and in assay [2] were 53 nM and 12 nM, respectively.

Consider `C=C(c1cc([C@H]2[C@@H]3C[C@H](N4CCC5(C4)CS(=O)(=O)C5)C[C@@H]32)n(C(C)C)n1)C(F)(F)F` [Compound 31, 6-((1R,3r,5S,6r)-6-(1-Isopropyl-3-(3,3,3-trifluoroprop-1-en-2-yl)-1H-pyrazol-5-yl)bicyclo[3.1.0]hexan-3-yl)-2-thia-6-azaspiro[3.4]octane 2,2-dioxide], for which the half-maximal effective concentration (EC50) in assay [1] turned out to be 30 nM; in assay [2], 7.1 nM.

With `CC(C)n1nc(C2(C(F)(F)F)CC2)cc1[C@H]1[C@@H]2C[C@H](N3CCC4(C3)CS(=O)(=O)C4)C[C@@H]21` [Compound 32, 6-((1R,3r,5S,6r)-6-(1-Isopropyl-3-(1-(trifluoromethyl)cyclopropyl)-1H-pyrazol-5-yl)bicyclo[3.1.0]hexan-3-yl)-2-thia-6-azaspiro[3.4]octane 2,2-dioxide], the values for the EC50 in assay [1] and in assay [2] were 29 nM and 5.3 nM, respectively.

As for `CC(C)n1nc(-c2cc(C(F)(F)F)ccn2)cc1[C@H]1[C@@H]2C[C@@H](N3CCC4(C3)CS(=O)(=O)C4)C[C@@H]21` (single isomer, unassigned) [Compound 20], the concentration for a half-maximal effect (EC50) was determined as 39 nM in assay [1] and 1.2 nM in assay [2].

For the compound `CC(C)n1nc(-c2cccc(C(F)(F)F)n2)cc1[C@H]1[C@@H]2C[C@@H](N3CCC4(C3)CS(=O)(=O)C4)C[C@@H]21` (single isomer, unassigned) [Compound 11], the EC50 in assay [1] came out at 14 nM; in assay [2], 7.2 nM.
